# Assay results reported in patent US11331327B2, “Antibacterial use of halogenated salicylanilides” (UNION therapeutics A/S, priority 2014, dated 2022).
# Values joined by “and” are separate entries in the source; they are usually repeats but may differ in a detail not shown here. Equal entries are not always repeated. Where two headings read alike, the source gives them in different places. Marks after values point to notes of the source that are not given here.
# Tests used:
# [1] = system: MRSA 01, MRSA 15, MRSA 16; experiment: Mutational frequency evaluation, Example 3; type: cell-based, Staphylococcus aureus; details: for Frequency of spontaneous mutations conferring resistance: strain MRSA 01, average of 10 replicates; for mutation frequency at MIC×1: no colony grew
# Protocol: Strains were conserved in Luria Bertani (LB) Broth supplemented with glycerol 15% (v/v) at −80° C., and reactivated by isolation on LB agar plates. Strains were cultivated aerobically in Mueller Hinton (MH) Broth-cation adjusted at 37° C.
# The frequency of spontaneous single-step mutations was determined on the 3 different strains as described by Drago et al. (2005) and Pannu et al. (2011). […] Adequate dilutions were plated on plates without the compound.
# Viable cell growth was enumerated after 48 hours of incubation at 37° C.
# The spontaneous resistance frequency for an isolate-drug combination was calculated from the number of colonies that grew on plates containing drug versus the number of colonies that grew on drug-free agar.
# Ten replicates were carried out for each strain and fusidic acid, mupirocin and retapamulin were used as controls for the MRSA 01 strain.
# P. aeruginosa = details: cited from earlier work
# MRSA 01 [2] = experiment: Colony-forming unit (CFU) in skin lesions of mice challenged with MRSA 01; type: in vivo, Staphylococcus aureus; details: female Balb/c mice, MRSA 01 skin lesion, topical twice daily for three days, Experiment 1
# Protocol: Three animal studies were performed with niclosamide and fusidic acid as comparison with different formulations and doses.
# In each experiment, female Balb/c mice received a skin lesion approximately 1 cm^2 and were challenged with 1.5×10^8 cfu MRSA 01 topically. Twenty-four hours after the wound formation and the contamination, mice were treated topically with 0.05 ml twice daily for three days. Mice were sacrificed on day 4, skin lesions were excised and cfu quantitated. Fusidin ointment (2% from Leo Pharma) was included as control.
# MRSA 01 [3] = experiment: Time-kill assay; type: cell-based, Staphylococcus aureus; details: niclosamide 4 μg/ml (MIC×10), initial inoculum 7 log10 cfu/ml
# Protocol: Assay was performed in 20 ml of medium. It included a negative control (medium without bacteria), a positive control (bacteria grown without niclosamide) and the assay (bacteria grown with niclosamide). […] This experiment was performed with the primary test microorganism indicated above.
# The overnight culture was stopped and OD600 was measured. Culture was then diluted in indicated medium to obtain an OD600 of 0.25 in order to have about 5×10^8 cfu/ml. Two hundred μl of this diluted culture were then added in all conditions except in the negative control. Initial bacterial concentration was about 5×10^6 cfu/ml. Tubes were incubated aerobically at 37° C. for 24 hours.
# Bacteria were enumerated before the incubation, after 30 minutes, 1, 2, 4, 8 and 24 hours of incubation by serial dilutions in NaCl 0.9% and plating on LB agar, with 2 plates per dilution. Plates were incubated at 37° C. and colonies enumerated after 24 hours.
# [4] = system: quorum sensing response in P. aeruginosa; details: reduction of quorum sensing response in P. aeruginosa; cited from earlier work
# [5] = cats, p.o.; cited from earlier work
# S. pyogenes strains = experiment: Minimum Inhibitory Concentration (MIC) assay, Example 1, S. pyogenes strains; type: cell-based, Streptococcus pyogenes
# Protocol: Strains were conserved in Luria Bertani (LB) Broth (S. aureus) or Brain Heart Infusion (BHI) (S. pyogenes) supplemented with glycerol 15% (v/v) at −80° C., and reactivated by isolation on LB (S. aureus) or BHI (S. pyogenes) agar plates. Strains were cultivated in Mueller Hinton (MH) Broth-cation adjusted (S. aureus) supplemented with lysed horse blood 2.5% (v/v) (S. pyogenes). All strains were cultivated at 37° C., aerobically for S. aureus strains.
# Bacterial cultures were stopped in their exponential growth phase and plates were inoculated with the approximate concentration of 10^3 cells per well. Plates were incubated at 37° C. for 18 hours (S. aureus) or 24 hours (S. pyogenes). Optical density at a wavelength of 600 nm was measured at the end of the incubation time. […] Experiments were performed at least as triplicate biological replicates with all strains.
# [6] = system: Streptococcus pyogenes strains; experiment: MIC assay, Example 2, S. pyogenes strains (in BHI); type: cell-based
# Protocol: Strains were conserved in Luria Bertani (LB) Broth (S. aureus) or Brain Heart Infusion (BHI) (S. pyogenes) supplemented with glycerol 15% (v/v) at −80° C., and reactivated by isolation on LB (S. aureus) or BHI (S. pyogenes) agar plates. Strains were cultivated in Mueller Hinton (MH) Broth-cation adjusted (S. aureus) or BHI (S. pyogenes). All strains were cultivated aerobically (microaerobically for S. pyogenes strains) at 37° C. […] Bacterial cultures were stopped in their exponential growth phase and plates were inoculated with the approximate concentration of 5×10^5 cells per well.
# MRSA 01 [7] = experiment: Effect of pH on the antibacterial activity (MIC) of niclosamide; type: cell-based, Staphylococcus aureus; details: for MIC: Staphylococcus aureus, MRSA
# Protocol: This strain was conserved in Luria Bertani (LB) Broth supplemented with glycerol 15% (v/v) at −80° C., and reactivated by isolation on LB agar plates. It was then cultivated aerobically in Mueller Hinton (MH) Broth-cation adjusted at 37° C.
# The pH of Mueller-Hinton Broth cation-adjusted was adjusted with HCl 2M to 7, 6.5, 6, 5.5, 5, 4.5 and […]. Ten ml of medium for each pH were prepared. pH of non-adjusted MHBII was equal to 7.4.
# Each pH-adjusted samples were filtered on 0.2 μm filters before being used for the MIC determination assay.
# Bacterial culture was stopped in its exponential growth phase and plates were inoculated with the approximate concentration of 5×10^5 cells per well. Plates were incubated at 37° C. for 18 hours (S. aureus).
# The experiment was performed in triple biological replicates.
# [8] = cited from earlier work
# [9] = S. pyogenes strains with MIC 0.0625 μg/ml
# [10] = S. pyogenes strains with MIC 0.5 μg/ml
# [11] = S. pyogenes strains with MIC […]
smiles,measurement,setting,value
CC(=O)O[C@H]1C[C@@]2(C)[C@@H](C[C@@H](O)[C@H]3[C@@]4(C)CC[C@@H](O)[C@@H](C)[C@@H]4CC[C@@]32C)/C1=C(\CCC=C(C)C)C(=O)O [Fusidic acid],mutational frequency at MIC×1,[1]; MRSA 01,≥ 4.10^−5
same,mutational frequency at MIC×10,[1]; MRSA 01,3.10^−7
same,Frequency of spontaneous mutations conferring resistance,[1]; concentration MIC × 1,≥4.10^−5
same,Frequency of spontaneous mutations conferring resistance,[1]; concentration MIC × 2,2.10^−5
same,Frequency of spontaneous mutations conferring resistance,[1]; concentration MIC × 4,1.10^−6
same,Frequency of spontaneous mutations conferring resistance,[1]; concentration MIC × 10,3.10^−7
C/C(=C\C(=O)OCCCCCCCCC(=O)O)C[C@@H]1OC[C@H](C[C@@H]2O[C@H]2[C@@H](C)[C@H](C)O)[C@@H](O)[C@H]1O [Mupirocin],Frequency of spontaneous mutations conferring resistance,[1]; concentration MIC × 1,≥4.10^−5
same,Frequency of spontaneous mutations conferring resistance,[1]; concentration MIC × 2,8.10^−8
same,Frequency of spontaneous mutations conferring resistance,[1]; concentration MIC × 4,1.10^−8
same,Frequency of spontaneous mutations conferring resistance,[1]; concentration MIC × 10,≤4.10^−9
"O=C(Nc1ccc([N+](=O)[O-])cc1Cl)c1cc(Cl)ccc1O [Niclosamide, 5-chloro-N-(2-chloro-4-nitrophenyl)-2-hydroxybenz-amide]",effect on growth of P. aeruginosa,P. aeruginosa,does not affect the growth
same,bacterial reduction (CFU in skin lesions) compared to control vehicles,MRSA 01 [2],significant bacterial reductions
same,bactericidal or bacteriostatic effect (time-kill curve),MRSA 01 [3],bacteriostatic effect
same,concentration at which some inhibition was detected,[4],1 µM
same,concentration required for optimal activity,[4],20 µM
same,LD50,[5],> 1000 mg/kg
same,mutation frequency at MIC×1,[1]; MRSA 15,< 3×10^−8
same,mutation frequency at MIC×1,[1]; MRSA 16,< 1×10^−7
same,mutational frequency at MIC×1,"[1]; all tested strains (MRSA 01, MRSA 15, MRSA 16), below the detection limit",< 4.10^−9
same,Frequency of spontaneous mutations conferring resistance,[1]; concentration MIC × 1,<4 × 10^−9*
same,Frequency of spontaneous mutations conferring resistance,[1]; concentration MIC × 2,<4 × 10^−9*
same,Frequency of spontaneous mutations conferring resistance,[1]; concentration MIC × 4,<4 × 10^−9*
same,Frequency of spontaneous mutations conferring resistance,[1]; concentration MIC × 10,<4 × 10^−9*
same,MIC,"S. pyogenes strains; Streptococcus pyogenes, S. pyogenes strains, read-out: Mic100 S. pyogenes",≤ 3 µg/mL and ≤ 3 µM
same,MIC,"S. pyogenes strains; against Streptococcus pyogenes strains (FIG. 1), read-out: MIC",≤ 3.2 µg/mL
same,MIC distribution (percentage of strains),[6]; [9],25%
same,MIC distribution (ratio of strains),[6]; [9],(1/4)
same,MIC distribution (percentage of strains),[6]; [10],25%
same,MIC distribution (ratio of strains),[6]; [10],(1/4)
same,MIC distribution (percentage of strains),[6]; [11],25%
same,MIC distribution (ratio of strains),[6]; [11],(1/4)
same,MIC,"[6]; Streptococcus pyogenes, all targeted S. pyogenes strains",≤ 0.5 µg/mL
same,inhibitory activity against MRSA 01 as a function of pH,"MRSA 01 [7]; MRSA 01, pH 7.4 to 5.5",increased when pH was decreased
same,pH at which the maximal inhibitory effect was observed,"MRSA 01 [7]; MRSA 01, pH-adjusted Mueller-Hinton Broth",5.5
same,MIC,"MRSA 01 [7]; MRSA 01, pH 5.5 (actual pH 5.530), Replicate 3",≤ 0.008 µg/mL
same,MIC,"MRSA 01 [7]; MRSA 01, pH 5.5 (actual pH 5.547), Replicate 2",≤ 0.008 µg/mL
same,MIC,"MRSA 01 [7]; MRSA 01, pH 5.5 (actual pH 5.569), Replicate 1",≤ 0.03 µg/mL
same,MIC,"MRSA 01 [7]; MRSA 01, pH 6.0 (actual pH 5.893), Replicate 1",0.06 µg/mL
same,MIC,"MRSA 01 [7]; MRSA 01, pH 6.0 (actual pH 5.955), Replicate 2",0.06 µg/mL
same,MIC,"MRSA 01 [7]; MRSA 01, pH 6.0 (actual pH 5.980), Replicate 3",0.016 µg/mL
same,MIC,"MRSA 01 [7]; MRSA 01, pH 6.5 (actual pH 6.512), Replicate 1",0.125 µg/mL
same,MIC,"MRSA 01 [7]; MRSA 01, pH 6.5 (actual pH 6.540), Replicate 3",0.03 µg/mL
same,MIC,"MRSA 01 [7]; MRSA 01, pH 6.5 (actual pH 6.566), Replicate 2",0.06 µg/mL
same,MIC,"MRSA 01 [7]; MRSA 01, pH 7.0 (actual pH 6.921), Replicate 1",0.25 µg/mL
same,MIC,"MRSA 01 [7]; MRSA 01, pH 7.0 (actual pH 7.025), Replicate 3",0.125 µg/mL
same,MIC,"MRSA 01 [7]; MRSA 01, pH 7.0 (actual pH 7.071), Replicate 2",0.125 µg/mL
same,MIC,"MRSA 01 [7]; pH 7.4, MRSA 01, pH not adjusted (actual pH 7.4), Replicate 1",0.5 µg/mL
same,MIC,"MRSA 01 [7]; pH 7.4, MRSA 01, pH not adjusted (actual pH 7.4), Replicate 2",0.25 µg/mL
same,MIC,"MRSA 01 [7]; pH 7.4, MRSA 01, pH not adjusted (actual pH 7.4), Replicate 3",0.5 µg/mL
same,LD50 mice p.o,[8]; Table 3,>1500 mg/kg
same,LD50,"[8]; mice, p.o.",> 5000 mg/kg
C=C[C@]1(C)C[C@@H](OC(=O)CS[C@@H]2C[C@H]3CC[C@@H](C2)N3C)[C@]2(C)[C@H](C)CC[C@]3(CCC(=O)[C@H]32)[C@@H](C)[C@@H]1O [Retapamulin],Frequency of spontaneous mutations conferring resistance,[1]; concentration MIC × 1,≥4.10^−5
same,Frequency of spontaneous mutations conferring resistance,[1]; concentration MIC × 2,3.10^−7
same,Frequency of spontaneous mutations conferring resistance,[1]; concentration MIC × 4,2.10^−8
same,Frequency of spontaneous mutations conferring resistance,[1]; concentration MIC × 10,<4.10^−9*
